Molecules are shown by their SMILES. Values joined by “and” are separate entries in the source; they are usually repeats but may differ in a detail not shown here. Identical values can stand only once. Bounds are passed on as bounds.

Tested on in the first data set: not given
Test: not given
Settings: not given
The compound `Nc1ncnc2cccc(Oc3ccc(F)cc3)c12` [Compound A-13, 4-Amino-5-(4-fluorophenoxy)quinazoline] yielded a melting point of 188 to 190 °C.

For `Nc1nc(N)c2c(Nc3ccccc3)cccc2n1` [Compound A-35, 2,4-Diamino-5-anilinoquinazoline], the melting point is 279 to 283 °C (dec.).

On to `Nc1nc(-c2ccccc2)nc2cccc(Oc3ccccc3)c12` [Compound A-12, 4-Amino-2-phenyl-5-phenoxyquinazoline], for which the melting point was in the range of 190 to 191 °C.

The target in a further data set is T1, RAF-1 (Homo sapiens, UniProt P04049).
T1 construct: made in house; host or cells: Sf9 (Spodoptera frugiperda) cells co-infected with RAS and RAF recombinant baculoviruses
T1 sequence (P04049 whole entry): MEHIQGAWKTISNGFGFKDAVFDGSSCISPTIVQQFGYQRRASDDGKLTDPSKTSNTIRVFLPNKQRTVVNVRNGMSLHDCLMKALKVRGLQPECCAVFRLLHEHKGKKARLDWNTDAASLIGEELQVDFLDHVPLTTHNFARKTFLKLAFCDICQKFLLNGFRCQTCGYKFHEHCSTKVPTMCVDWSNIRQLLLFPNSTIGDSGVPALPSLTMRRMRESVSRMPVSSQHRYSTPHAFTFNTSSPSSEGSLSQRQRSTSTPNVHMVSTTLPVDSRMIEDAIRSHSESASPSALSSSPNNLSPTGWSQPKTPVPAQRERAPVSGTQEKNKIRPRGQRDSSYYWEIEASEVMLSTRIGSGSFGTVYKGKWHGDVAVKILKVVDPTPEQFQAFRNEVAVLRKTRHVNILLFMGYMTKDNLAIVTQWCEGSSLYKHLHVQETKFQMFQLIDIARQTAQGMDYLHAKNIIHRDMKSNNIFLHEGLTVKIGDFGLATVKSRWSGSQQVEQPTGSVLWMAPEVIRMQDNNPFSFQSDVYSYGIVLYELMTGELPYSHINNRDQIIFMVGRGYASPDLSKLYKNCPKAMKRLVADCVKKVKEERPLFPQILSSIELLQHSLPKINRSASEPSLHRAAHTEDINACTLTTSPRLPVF
The data set can be described thus: RAF-1 ELISA phosphorylation assay (RAF-catalyzed phosphorylation of MEK and MAPK). It is filed as biochemical. Conditions: RAF-1 phosphorylation assay, lysates from RAS/RAF infected Sf9 cells, substrates T-MEK and His-MAPK. An excerpt: The following assay reports the amount of RAF-catalyzed phosphorylation of its target protein MEK as well as MEK's target MAPK. The RAF gene sequence is described in Bonner et al., 1985, Molec. Cell. Biol. 5: 1400-1407, and is readily accessible in multiple gene sequence data banks. Construction of the nucleic acid vector and cell lines utilized for this portion of the invention are fully described in Morrison et al., 1988, Proc. Natl. Acad. Sci. USA 85: 8855-8859.
• 1. Sf9 (Spodoptera frugiperda) cells; GIBCO-BRL, Gaithersburg, Md. • 2. RIPA buffer: 20 mM Tris/HCl pH 7.4, 137 mM NaCl, 10% glycerol, 1 mM PMSF, 5 mg/L Aprotenin, 0.5% Triton X-100; • 3. Thioredoxin-MEK fusion protein (T-MEK): T-MEK expression and purification by affinity chromatography were performed according to the manufacturer's procedures. Catalog#K 350-01 and R 350-40, Invitrogen Corp., San Diego, Calif. • 4. His-MAPK (ERK 2); His-tagged MAPK was expressed in XL1 Blue cells transformed with pUC18 vector encoding His-MAPK. His-MAPK was purified by Ni-affinity chromatography. Cat#27-4949-01, Pharmacia, Alameda, Calif., as described herein. • 5. Sheep anti mouse IgG: Jackson laboratories, West Grove, Pa. Catalog, #515-006-008, Lot#28563 • 6. RAF-1 protein kinase specific antibody: URP2653 from UBI. • 7. Coating buffer: PBS; phosphate buffered saline, GIBCO-BRL, Gaithersburg, Md. • 8. Wash buffer: TBST-50 mM Tris/HCL pH 7.2, 150 mM NaCl, 0.1% Triton X-100 • 9. Block buffer: TBST, 0.1% ethanolamine pH 7.4 • 10. DMSO, Sigma, St. Louis, Mo. • 11. Kinase buffer (KB): 20 mM Hepes/HC1 pH 7.2, 150 mM NaCl, 0.1% Triton X-100, 1 mM PMSF, 5 mg/L Aprotenin, 75 μM sodium ortho vanadate, 0.5 MM DTT and 10 mM MgCl2. • 12. ATP mix: 100 mM MgCl2, 300 μM ATP, 10 μCi γ-^33P ATP (Dupont-NEN)/mL. • 13 Stop solution: 1% phosphoric acid; Fisher, Pittsburgh, Pa. • 14. Wallac Cellulose Phosphate Filter mats; Wallac, Turku, Finnland. • 15. Filter wash solution: 1% phosphoric acid, Fisher, Pittsburgh, Pa. • 16. Tomtec plate harvester, Wallac, Turku, Finnland. • 17. Wallac beta plate reader #1205, Wallac, Turku, Finnland. • 18. NUNC 96-well V bottom polypropylene plates for compounds Applied Scientific Catalog #AS-72092. Procedure
All of the following steps were conducted at room temperature unless specifically indicated. • 1. ELISA plate coating: ELISA wells are coated with 100 μL of Sheep anti mouse affinity purified antiserum (1 μg/100 μL coating buffer) over night at 4° C. ELISA plates can be used for two weeks when stored at 4° C. • 2. Invert the plate and remove liquid. Add 100 μL of blocking solution and incubate for 30 min. • 3. Remove blocking solution and wash four times with wash buffer. Pat the plate on a paper towel to remove excess liquid. • 4. Add 1 μg of antibody specific for RAF-1 to each well and incubate for 1 hour. Wash as described in step 3. • 5. Thaw lysates from RAS/RAF infected Sf9 cells and dilute with TBST to 10 μg/100 μL. Add 10 μg of diluted lysate to the wells and incubate for 1 hour. Shake the plate during incubation. Negative controls receive no lysate. Lysates from RAS/RAF infected Sf9 insect cells are prepared after cells are infected with recombinant baculoviruses at a MOI of 5 for each virus, and harvested 48 hours later. The cells are washed once with PBS and lysed in RIPA buffer. Insoluble material is removed by centrifugation (5 min at 10,000×g). Aliquots of lysates are frozen in dry ice/ethanol and stored at −80° C. until use. • 6. Remove non-bound material and wash as outlined above (step 3). • 7. Add 2 μg of T-MEK and 2 μg of His-MAEPK per well and adjust the volume to 40 μL with kinase buffer. Methods for purifying T-MEK and MAPK from cell extracts are provided herein by example. • 8. Predilute compounds (stock solution 10 mg/mL DMSO) or extracts 20 fold in TBST plus 1% DMSO. Add 5 μL of the prediluted compounds/extracts to the wells described in step 6. Incubate for 20 min. Controls receive no drug. • 9. […]
For `CN(C)c1cccc(Oc2cccc3nc(N)nc(N)c23)c1` [Compound A-14, 2,4-Diamino-5-(3-dimethylaminophenoxy)quinazoline], the IC50 is 24.6 µM and 57 µM.

`Nc1nc(N)c2c(Sc3ccc(Cl)cc3)cccc2n1` [Compound A-5, 2,4-Diamino-5-(4-chlorophenylthio)quinazoline] returned an IC50 of more than 100 µM.

With `Cc1ccc(Sc2cccc3nc(N)nc(N)c23)cc1` [Compound A-4, 2,4-Diamino-5-(4-methylphenylthio)quinazoline], the IC50 is more than 100 µM.

Regarding `Nc1ncnc2cccc(Sc3ccccc3)c12` [Compound A-3, 4-Amino-5-phenylthioquinazoline], half-maximal inhibition (IC50) was put at 25.6 µM.

`Nc1ncnc2cccc(Oc3ccc(F)cc3)c12` [Compound A-13, 4-Amino-5-(4-fluorophenoxy)quinazoline] gave an IC50 of 0.1 µM.

The compound `Nc1nc(N)c2c(Oc3cccc(C(F)(F)F)c3)cccc2n1` [Compound A-11, 2,4-Diamino-5-(3-trifluoromethylphenoxy)quinazoline] had an IC50 of more than 100 µM.

Turning to `COc1ccc(Oc2cccc3ncnc(N)c23)cc1` [Compound A-15, 4-Amino-5-(4-methoxyphenoxy)quinazoline], the midpoint of inhibition, the IC50, lay at 0.8 µM.

Consider `Nc1nc(-c2ccccc2)nc2cccc(Oc3ccccc3)c12` [Compound A-12, 4-Amino-2-phenyl-5-phenoxyquinazoline], for which the IC50 is more than 100 µM.

These data come from patent US6911446B2, “Methods of modulating serine/threonine protein kinase function with quinazoline-based compounds” (Sugen, Inc., priority 1997, dated 2005).
